For assay [1], the target named is T1, Recombinant STAT3 protein (STAT3 (G127-I722)) (Homo sapiens, UniProt P40763).
T1 construct: Recombinant STAT3 protein (STAT3 (G127-I722))
Kind of assay: STAT3 Fluorescence Polarization (FP) Assay. Format: binding. To be noted: STAT3 (G127-I722) 25 nM, probe 5-FAM-GpYLPQTV-NH2 2 nM, 45-minute incubation; read-out: STAT3 (FP assay IC50 class). Summed up:
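Displacement of a 2 nM 5-FAM-labelled pY peptide (GpYLPQTV) from 25 nM recombinant STAT3 (G127-I722) was monitored by fluorescence polarization. Incubation lasted 45 min at room temperature in pH 7.4 HEPES buffer containing 1% DMSO.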
(Fluorescence polarisation rises when a labelled molecule tumbles more slowly, as on binding a larger partner.)

Assay [2] addresses T2, Recombinant STAT6 protein (STAT6 (W123-T658)) (Homo sapiens, UniProt P42226).
T2 construct: Recombinant STAT6 protein (STAT6 (W123-T658))
T2 sequence (P42226 123-658): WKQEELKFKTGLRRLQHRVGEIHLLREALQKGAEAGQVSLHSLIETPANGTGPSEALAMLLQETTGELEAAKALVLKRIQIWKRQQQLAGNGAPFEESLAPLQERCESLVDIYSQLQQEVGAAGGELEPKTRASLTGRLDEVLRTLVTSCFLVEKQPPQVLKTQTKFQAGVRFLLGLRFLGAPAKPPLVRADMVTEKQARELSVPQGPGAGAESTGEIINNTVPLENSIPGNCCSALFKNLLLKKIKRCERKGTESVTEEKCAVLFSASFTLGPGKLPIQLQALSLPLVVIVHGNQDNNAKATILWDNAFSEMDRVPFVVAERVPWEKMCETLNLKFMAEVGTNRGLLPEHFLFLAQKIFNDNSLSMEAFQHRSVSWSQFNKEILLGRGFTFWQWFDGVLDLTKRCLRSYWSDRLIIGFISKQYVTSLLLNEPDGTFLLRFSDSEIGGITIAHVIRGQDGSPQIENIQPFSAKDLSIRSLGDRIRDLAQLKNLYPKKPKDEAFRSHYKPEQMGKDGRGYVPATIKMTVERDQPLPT
Kind of assay: STAT6 Fluorescence Polarization (FP) Assay. The format is binding. To be noted: STAT6 (W123-T658) 250 nM, probe 5-FAM-Ap[…]-NH2 2 nM, 45-minute incubation; read-out: STAT6 (FP assay IC50 class). Summed up:
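Recombinant STAT6 (W123-T658) at 250 nM mixed with 2 nM 5-FAM phosphotyrosine peptide probe in HEPES pH 7.4 buffer with DTT, 1% DMSO final, added to serially diluted compounds. FP (mP) read after 45 min at room temperature; IC50 by nonlinear regression vs log concentration.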

T1 sequence (P40763 127-722): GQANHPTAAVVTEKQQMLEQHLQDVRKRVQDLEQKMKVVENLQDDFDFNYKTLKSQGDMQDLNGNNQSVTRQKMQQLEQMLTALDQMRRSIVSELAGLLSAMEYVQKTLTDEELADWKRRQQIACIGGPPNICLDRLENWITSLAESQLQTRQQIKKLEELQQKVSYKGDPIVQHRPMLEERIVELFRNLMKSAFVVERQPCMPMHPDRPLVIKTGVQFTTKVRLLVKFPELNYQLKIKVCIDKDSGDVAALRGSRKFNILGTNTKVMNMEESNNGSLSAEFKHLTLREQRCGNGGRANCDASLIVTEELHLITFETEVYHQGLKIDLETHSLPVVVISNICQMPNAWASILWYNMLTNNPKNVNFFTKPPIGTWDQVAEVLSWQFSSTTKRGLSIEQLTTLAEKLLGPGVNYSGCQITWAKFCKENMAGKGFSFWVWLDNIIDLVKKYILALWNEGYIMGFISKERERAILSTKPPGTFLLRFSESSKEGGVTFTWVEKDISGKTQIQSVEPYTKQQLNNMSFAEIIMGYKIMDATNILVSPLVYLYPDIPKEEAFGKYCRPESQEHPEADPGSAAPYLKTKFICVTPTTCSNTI

For orientation: IC50 means the concentration needed to halve the response being measured. On to `O=C(N[C@H]1CCC[C@H]2CC[C@@H](C(=O)N3CC(c4cnccc4C(F)F)C3)N2C1=O)c1cc2cc(C(F)(F)P(=O)(O)O)ccc2s1` [Compound 819, ((2-(((3S,6S,9aS)-3-(3-(4-(difluoromethyl)pyridin-3-yl)azetidine-1-carbonyl)-5-oxooctahydro-1H-pyrrolo[1,2-a]azepin-6-yl)carbamoyl)benzo [b]thiophen-5-yl)difluoromethyl) phosphonic acid], for which the IC50 in assay [1] was 100 to 1000 nM; in assay [2], 300 to 3000 nM.
On the same counts, the results for `Cc1ccc(C#N)nc1C1CN(C(=O)[C@@H]2CC[C@@H]3CCC[C@H](NC(=O)c4cc5cc(C(F)(F)P(=O)(O)O)ccc5s4)C(=O)N32)C1` [Compound 820, ((2-(((3S,6S,9aS)-3-(3-(6-cyano-3-methylpyridin-2-yl)azetidine-1-carbonyl)-5-oxooctahydro-1H-pyrrolo[1,2-a]azepin-6-yl)carbamoyl)benzo [b]thiophen-5-yl)difluoromethyl) phosphonic acid] are 100 to 1000 nM and 3000 to 30000 nM.
Turning to `O=C(N[C@H]1CCC[C@H]2CC[C@@H](C(=O)N3CC(n4ncc5ccccc54)C3)N2C1=O)c1cc2cc(C(F)(F)P(=O)(O)O)ccc2s1` [Compound 821, ((2-(((3S,6S,9aS)-3-(3-(1H-indazol-1-yl)azetidine-1-carbonyl)-5-oxooctahydro-1H-pyrrolo[1,2-a]azepin-6-yl)carbamoyl)benzo [b]thiophen-5-yl)difluoromethyl) phosphonic acid], the values for the IC50 in assay [1] and in assay [2] were 100 to 1000 nM and 300 to 3000 nM, respectively.
On the same counts, the results for `COC1(CS(C)(=N)=O)CN(C(=O)[C@@H]2CC[C@@H]3CCC[C@H](NC(=O)c4cc5cc(C(F)(F)P(=O)(O)O)ccc5s4)C(=O)N32)C1` (stereo partly drawn) [Compound 822, (difluoro(2-(((3S,6S,9aS)-3-(3-methoxy-3-((S-methylsulfonimidoy 1)methyl)azetidine-1-carbonyl)-5-oxooctahydro-1H-pyrrolo[1,2-a]azepin-6-yl)carbamoyl)benzo [b]thiophen-5-yl)methyl) phosphonic acid] are 100 to 1000 nM and 3000 to 30000 nM.
For `CC(C)OC1(c2nncn2C)CN(C(=O)[C@@H]2CC[C@@H]3CCC[C@H](NC(=O)c4cc5cc(C(F)(F)P(=O)(O)O)ccc5s4)C(=O)N32)C1` [Compound 823, (difluoro(2-(((3S,6S,9aS)-3-(3-isopropoxy-3-(4-methyl-4H-1,2,4-triazol-3-yl)azetidine-1-carbonyl)-5-oxooctahydro-1H-pyrrolo[1,2-a]azepin-6-yl)carbamoyl)benzo [b]thiophen-5-yl)methyl) phosphonic acid], the IC50 in assay [1] lay in the range of 100 to 1000 nM; in assay [2], 3000 to 30000 nM.
Turning to `N#Cc1ccnc(C2CN(C(=O)[C@@H]3CC[C@@H]4CCC[C@H](NC(=O)c5cc6cc(C(F)(F)P(=O)(O)O)ccc6s5)C(=O)N43)C2)n1` [Compound 824, ((2-(((3S,6S,9aS)-3-(3-(4-cyanopyrimidin-2-yl)azetidine-1-carbonyl)-5-oxooctahydro-1H-pyrrolo[1,2-a]azepin-6-yl)carbamoyl)benzo [b]thiophen-5-yl)difluoromethyl) phosphonic acid], the figures for the IC50 in assay [1] and in assay [2] were less than 100 nM and 300 to 3000 nM, respectively.
On the same counts, the results for `O=C(N[C@H]1CCCC[C@H]2CC[C@@H](C(=O)NCc3ccc4nccnc4c3)N2C1=O)c1cc2cc(C(F)(F)P(=O)(O)O)ccc2s1` [Compound 825, (difluoro(2-(((3S,6S,10aS)-5-oxo-3-((quinoxalin-6-ylmethyl)carbamoyl)decahydropyrrolo [1,2-a]azocin-6-yl)carbamoyl)benzo [b]thiophen-5-yl)methyl) phosphonic acid] are 100 to 1000 nM and 300 to 3000 nM.
Turning to `COc1cccnc1C1CN(C(=O)[C@@H]2CC[C@@H]3CCC[C@H](NC(=O)c4cc5cc(C(F)(F)P(=O)(O)O)ccc5s4)C(=O)N32)C1` [Compound 826, (difluoro(2-(((3S,6S,9aS)-3-(3-(3-methoxypyridin-2-yl)azetidine-1-carbonyl)-5-oxooctahydro-1H-pyrrolo[1,2-a]azepin-6-yl)carbamoyl)benzo [b]thiophen-5-yl)methyl) phosphonic acid], the IC50 in assay [1] was in the range of 100 to 1000 nM; in assay [2] it was 300 to 3000 nM.
In the same order, the values of `CN=S(C)(=O)CC1(OC)CN(C(=O)[C@@H]2CC[C@@H]3CCC[C@H](NC(=O)c4cc5cc(C(F)(F)P(=O)(O)O)ccc5s4)C(=O)N32)C1` (stereo partly drawn) [Compound 827, ((2-(((3S,6S,9aS)-3-(3-((N,S-dimethyl-sulfonimidoyl)methyl)-3-methoxyazetidine-1-carbonyl)-5-oxooctahydro-1H-pyrrolo[1,2-a]azepin-6-yl)carbamoyl)benzo [b]thiophen-5-yl)difluoromethyl) phosphonic acid] are 100 to 1000 nM and 3000 to 30000 nM.
On the same counts, the results for `O=C(N[C@H]1CCCC[C@H]2CC[C@@H](C(=O)NCc3ccn4ccnc4c3)N2C1=O)c1cc2cc(C(F)(F)P(=O)(O)O)ccc2s1` [Compound 828] are less than 100 nM and 300 to 3000 nM.
For the compound `O=C(/C=C/c1ccc(C(F)(F)P(=O)(O)O)cc1)N[C@H]1CCCC[C@H]2CC[C@@H](C(=O)N3Cc4cnn(-c5ccccc5)c4C3)N2C1=O` [Compound 829, (difluoro(4-((E)-3-oxo-3-(((3S,6S,10aS)-5-oxo-3-(1-phenyl-1,4,5,6-tetrahydropyrrolo[3,4-c]pyrazole-5-carbonyl)decahydropyrrolo[1,2-a]azocin-6-yl)amino)prop-1-en-1-yl)phenyl)methyl) phosphonic acid], the IC50 in assay [1] lay in the range of 1000 to 10000 nM; in assay [2] it was 300 to 3000 nM.
As for `Cn1ccc([C@@H]2CN(C(=O)[C@@H]3CC[C@@H]4CCC[C@H](NC(=O)c5cc6cc([C@@H](F)P(=O)(O)O)ccc6s5)C(=O)N43)C3(CC3)C2)cc1=O` [Compound 831, ((S)-fluoro(2-(((3S,6S,9aS)-3-((R)-6-(1-methyl-2-oxo-1,2-dihydropyridin-4-yl)-4-azaspiro[2.4]heptane-4-carbonyl)-5-oxooctahydro-1H-pyrrolo[1,2-a]azepin-6-yl)carbamoyl)benzo [b]thiophen-5-yl)methyl) phosphonic acid], the IC50 in assay [1] was in the range of 1000 to 10000 nM; in assay [2] it was 300 to 3000 nM.
For the compound `C[C@H]1C[C@H]2CC[C@@H](C(=O)N3C[C@@H](c4cccnc4)CC34CC4)N2C(=O)[C@@H](NC(=O)c2cc3cc([C@H](F)P(=O)(O)O)ccc3s2)C1` [Compound 834, ((R)-fluoro(2-(((3S,6S,8R,9aR)-8-methyl-5-oxo-3-((R)-6-(pyridin-3-yl)-4-azaspiro[2.4]heptane-4-carbonyl)octahydro-1H-pyrrolo[1,2-a]azepin-6-yl)carbamoyl)benzo [b]thiophen-5-yl)methyl) phosphonic acid], the IC50 is 100 to 1000 nM in assay [1] and no more than 300 nM in assay [2].
With `C[C@H]1C[C@H]2CC[C@@H](C(=O)N3C[C@H](c4ccccc4)[C@@H](C#N)C34CC4)N2C(=O)[C@@H](NC(=O)c2cc3cc([C@H](F)P(=O)(O)O)ccc3s2)C1` [Compound 849, ((R)-(2-(((3S,6S,8R,9aR)-3-((6S,7R)-7-cyano-6-phenyl-4-azaspiro[2.4]heptane-4-carbonyl)-8-methyl-5-oxooctahydro-1H-pyrrolo[1,2-a]azepin-6-yl)carbamoyl)benzo [b]thiophen-5-yl)fluoromethyl) phosphonic acid], the IC50 is 1000 to 10000 nM in assay [1] and no more than 300 nM in assay [2].
In the same order, the values of `O=C(N[C@H]1CCC[C@H]2CC[C@@H](C(=O)N3CC(c4cnccc4N4CCCC4=O)C3)N2C1=O)c1cc2cc(CP(=O)(O)O)ccc2s1` [Compound 850, ((2-(((3S,6S,9aS)-5-oxo-3-(3-(4-(2-oxopyrrolidin-1-yl)pyridin-3-yl)azetidine-1-carbonyl)octahydro-1H-pyrrolo[1,2-a]azepin-6-yl)carbamoyl)benzo [b]thiophen-5-yl)methyl) phosphonic acid] are 1000 to 10000 nM and 3000 to 30000 nM.
In the same order, the values of `CN1CCN(c2ccncc2C2CN(C(=O)[C@@H]3CC[C@@H]4CCC[C@H](NC(=O)c5cc6cc([C@@H](F)P(=O)(O)O)ccc6s5)C(=O)N43)C2)C1=O` [Compound 851, ((S)-fluoro(2-(((3S,6S,9aS)-3-(3-(4-(3-methyl-2-oxoimidazolidin-1-yl)pyridin-3-yl)azetidine-1-carbonyl)-5-oxooctahydro-1H-pyrrolo[1,2-a]azepin-6-yl)carbamoyl)benzo [b]thiophen-5-yl)methyl) phosphonic acid] are 100 to 1000 nM and 3000 to 30000 nM.
